From patent publication US20260130395A1, “Water Dispersible Botanical Compositions” (Aquila Black Limited, priority 2021, published 2026)

Test: Stability of cannabinoid compounds and Vitamin E components in Beverage 2 (AB Red) by LCMSMS
Type: physicochemical

## CC(=O)Oc1c(C)c(C)c2c(c1C)CCC(C)(CCC[C@H](C)CCC[C@H](C)CCCC(C)C)O2 (stereo partly drawn) [α-Tocopheryl acetate]
Stored at 8° C., 0 days
  Stability of Vitamin Es in AB Red: 12.5 µg/mL
Stored at 8° C., 1 days
  Stability of Vitamin Es in AB Red: 11.6 µg/mL
Stored at 8° C., 2 days
  Stability of Vitamin Es in AB Red: 11.5 µg/mL
Stored at 8° C., 3 days
  Stability of Vitamin Es in AB Red: 11.6 µg/mL
Stored at 8° C., 5 days
  Stability of Vitamin Es in AB Red: 12.3 µg/mL
Stored at 8° C., 8 days
  Stability of Vitamin Es in AB Red: 12.2 µg/mL
Stored at 8° C., 9 days
  Stability of Vitamin Es in AB Red: 12.1 µg/mL
Stored at 8° C., 10 days
  Stability of Vitamin Es in AB Red: 12.6 µg/mL
Stored at 8° C., 11 days
  Stability of Vitamin Es in AB Red: 11.9 µg/mL
Stored at 8° C., 12 days
  Stability of Vitamin Es in AB Red: 12.4 µg/mL
Stored at 8° C., 15 days
  Stability of Vitamin Es in AB Red: 12.0 µg/mL
Stored at 8° C., 16 days
  Stability of Vitamin Es in AB Red: 11.5 µg/mL
Stored at 8° C., 17 days
  Stability of Vitamin Es in AB Red: 11.8 µg/mL
Stored at 8° C., 18 days
  Stability of Vitamin Es in AB Red: 12.5 µg/mL
Stored at 8° C., 19 days
  Stability of Vitamin Es in AB Red: 12.5 µg/mL
Stored at 8° C., 22 days
  Stability of Vitamin Es in AB Red: 12.5 µg/mL
Stored at 8° C., 23 days
  Stability of Vitamin Es in AB Red: 11.9 µg/mL
Stored at 8° C., 24 days
  Stability of Vitamin Es in AB Red: 12.6 µg/mL
Stored at 8° C., 25 days
  Stability of Vitamin Es in AB Red: 12.3 µg/mL
Stored at 8° C., 26 days
  Stability of Vitamin Es in AB Red: 11.6 µg/mL
Stored at 8° C., 29 days
  Stability of Vitamin Es in AB Red: 11.7 µg/mL
Stored at 8° C., 30 days
  Stability of Vitamin Es in AB Red: 12.1 µg/mL
Stored at 8° C., 60 days
  Stability of Vitamin Es in AB Red: 11.4 µg/mL
Stored at 8° C., 90 days
  Stability of Vitamin Es in AB Red: 11.6 µg/mL
Stored at 8° C., 120 days
  Stability of Vitamin Es in AB Red: 11.7 µg/mL
Stored at 8° C., 150 days
  Stability of Vitamin Es in AB Red: 12.3 µg/mL
Stored at 8° C., 180 days
  Stability of Vitamin Es in AB Red: 12.6 µg/mL
Stored at 8° C., 210 days
  Stability of Vitamin Es in AB Red: 11.8 µg/mL
Stored at 8° C., 240 days
  Stability of Vitamin Es in AB Red: 11.2 µg/mL
Stored at 8° C., 270 days
  Stability of Vitamin Es in AB Red: 11.6 µg/mL
Stored at 8° C., 300 days
  Stability of Vitamin Es in AB Red: 11.2 µg/mL
Stored at 8° C., 330 days
  Stability of Vitamin Es in AB Red: 11.3 µg/mL
Stored at 8° C., 360 days
  Stability of Vitamin Es in AB Red: 11.3 µg/mL
Stored at 8° C., 390 days
  Stability of Vitamin Es in AB Red: 11.4 µg/mL
Stored at 8° C., 420 days
  Stability of Vitamin Es in AB Red: 11.2 µg/mL
Stored at 8° C., 450 days
  Stability of Vitamin Es in AB Red: 11.4 µg/mL
Stored at 8° C., 480 days
  Stability of Vitamin Es in AB Red: 10.7 µg/mL
Stored at 8° C., 510 days
  Stability of Vitamin Es in AB Red: 10.6 µg/mL
Stored at 8° C., 540 days
  Stability of Vitamin Es in AB Red: 10.8 µg/mL
Stored at 8° C., 570 days
  Stability of Vitamin Es in AB Red: 10.8 µg/mL
Stored at 21-25° C., 0 days
  Stability of Vitamin Es in AB Red: 12.5 µg/mL
Stored at 21-25° C., 1 days
  Stability of Vitamin Es in AB Red: 12.1 µg/mL
Stored at 21-25° C., 2 days
  Stability of Vitamin Es in AB Red: 12.5 µg/mL
Stored at 21-25° C., 3 days
  Stability of Vitamin Es in AB Red: 11.7 µg/mL
Stored at 21-25° C., 5 days
  Stability of Vitamin Es in AB Red: 12.2 µg/mL
Stored at 21-25° C., 8 days
  Stability of Vitamin Es in AB Red: 11.4 µg/mL
Stored at 21-25° C., 9 days
  Stability of Vitamin Es in AB Red: 11.6 µg/mL
Stored at 21-25° C., 10 days
  Stability of Vitamin Es in AB Red: 12.5 µg/mL
Stored at 21-25° C., 11 days
  Stability of Vitamin Es in AB Red: 12.3 µg/mL
Stored at 21-25° C., 12 days
  Stability of Vitamin Es in AB Red: 12.3 µg/mL
Stored at 21-25° C., 15 days
  Stability of Vitamin Es in AB Red: 12.1 µg/mL
Stored at 21-25° C., 16 days
  Stability of Vitamin Es in AB Red: 12.1 µg/mL
Stored at 21-25° C., 17 days
  Stability of Vitamin Es in AB Red: 11.3 µg/mL
Stored at 21-25° C., 18 days
  Stability of Vitamin Es in AB Red: 12.0 µg/mL
Stored at 21-25° C., 19 days
  Stability of Vitamin Es in AB Red: 12.0 µg/mL
Stored at 21-25° C., 22 days
  Stability of Vitamin Es in AB Red: 12.1 µg/mL
Stored at 21-25° C., 23 days
  Stability of Vitamin Es in AB Red: 11.7 µg/mL
Stored at 21-25° C., 24 days
  Stability of Vitamin Es in AB Red: 11.5 µg/mL
Stored at 21-25° C., 25 days
  Stability of Vitamin Es in AB Red: 12.4 µg/mL
Stored at 21-25° C., 26 days
  Stability of Vitamin Es in AB Red: 12.0 µg/mL
Stored at 21-25° C., 29 days
  Stability of Vitamin Es in AB Red: 11.9 µg/mL
Stored at 21-25° C., 30 days
  Stability of Vitamin Es in AB Red: 12.6 µg/mL
Stored at 21-25° C., 60 days
  Stability of Vitamin Es in AB Red: 11.6 µg/mL
Stored at 21-25° C., 90 days
  Stability of Vitamin Es in AB Red: 12.3 µg/mL
Stored at 21-25° C., 120 days
  Stability of Vitamin Es in AB Red: 12.3 µg/mL
Stored at 21-25° C., 150 days
  Stability of Vitamin Es in AB Red: 11.4 µg/mL
Stored at 21-25° C., 180 days
  Stability of Vitamin Es in AB Red: 12.0 µg/mL
Stored at 21-25° C., 210 days
  Stability of Vitamin Es in AB Red: 11.6 µg/mL
Stored at 21-25° C., 240 days
  Stability of Vitamin Es in AB Red: 11.3 µg/mL
Stored at 21-25° C., 270 days
  Stability of Vitamin Es in AB Red: 11.4 µg/mL
Stored at 21-25° C., 300 days
  Stability of Vitamin Es in AB Red: 11.2 µg/mL
Stored at 21-25° C., 330 days
  Stability of Vitamin Es in AB Red: 11.6 µg/mL
Stored at 21-25° C., 360 days
  Stability of Vitamin Es in AB Red: 11.1 µg/mL
Stored at 21-25° C., 390 days
  Stability of Vitamin Es in AB Red: 11.3 µg/mL
Stored at 21-25° C., 420 days
  Stability of Vitamin Es in AB Red: 11.3 µg/mL
Stored at 21-25° C., 450 days
  Stability of Vitamin Es in AB Red: 11.2 µg/mL
Stored at 21-25° C., 480 days
  Stability of Vitamin Es in AB Red: 10.4 µg/mL
Stored at 21-25° C., 510 days
  Stability of Vitamin Es in AB Red: 10.4 µg/mL
Stored at 21-25° C., 540 days
  Stability of Vitamin Es in AB Red: 10.6 µg/mL
Stored at 21-25° C., 570 days
  Stability of Vitamin Es in AB Red: 10.6 µg/mL
